# ChEMBL document CHEMBL3856230, “Structure-Activity Relationships of Di-2-pyridylketone, 2-Benzoylpyridine, and 2-Acetylpyridine Thiosemicarbazones for Overcoming Pgp-Mediated Drug Resistance” (J Med Chem, 2016)
# Calls of active or inactive are those of the source. The calls are words filed in the database; no cut-off is given here.
# Legend:
# KBV1 [1] = assay: Induction of P-gp-mediated lysosomal membrane permeabilization in human KBV1 cells over expressing P-gp assessed as increase in LAMP2 fluorescence at 10 uM after 24 hrs by TexasRed staining based immunofluorescence microscopic analysis; format: cell-based
# KB 3-1 [2] = assay: (§1) Antiproliferative activity against human KB3-1 cells after 24 hrs in presence of P-gp inhibitor elacridar by MTT assay; format: functional, cell-based
# KB-V1 [3] = assay: Induction of oxidative stress-dependent lysosomal membrane permeabilization in human KBV1 cells over expressing P-gp assessed as decrease in cathepsin D and LAMP2 lysosomal colocalization at 10 uM after 24 hrs by TexasRed staining based immunofluorescence microscopic analysis; format: functional, cell-based
# KB-V1 [4] = assay: Induction of copper-dependent lysosomal membrane permeabilization in human KBV1 cells over expressing P-gp assessed as decrease in cathepsin D and LAMP2 lysosomal colocalization at 10 uM after 24 hrs by TexasRed staining based immunofluorescence microscopic analysis; format: functional, cell-based
# Homo sapiens [5] = organism: Homo sapiens; assay: Substrate activity at P-gp (unknown origin) in P-gp enriched membranes assessed as increase in ATPase activity at 50 uM in presence of Mg2-ATP after 40 mins by luciferase reporter gen assay relative to control; format: cell membranes
# KB 3-1 [6] = assay: (§2) Antiproliferative activity against human KB3-1 cells after 24 hrs by MTT assay; format: functional, cell-based
# KBV1 [7] = assay: Induction of P-gp-mediated lysosomal membrane permeabilization in human KBV1 cells over expressing P-gp assessed as cathepsin D release from lysosome to cytosol at 10 uM after 24 hrs by TexasRed staining based immunofluorescence microscopic analysis; format: cell-based
# KBV1 [8] = assay: Induction of P-gp-mediated lysosomal membrane permeabilization in human KBV1 cells over expressing P-gp assessed as increase in LAMP2 fluorescence at 25 uM after 24 hrs by TexasRed staining based immunofluorescence microscopic analysis; format: cell-based
# KB-V1 [9] = assay: Induction of copper-dependent lysosomal membrane permeabilization in human KBV1 cells over expressing P-gp assessed as decrease in cathepsin D and LAMP2 lysosomal colocalization at 25 uM after 24 hrs by TexasRed staining based immunofluorescence microscopic analysis; format: functional, cell-based
# KBV1 [10] = assay: Induction of P-gp-mediated lysosomal membrane permeabilization in human KBV1 cells over expressing P-gp assessed as cathepsin D release from lysosome to cytosol at 25 uM after 24 hrs by TexasRed staining based immunofluorescence microscopic analysis; format: cell-based
# [11] = Selectivity ratio of IC50 for human KB31 cells to IC50 for human KBV1 cells over expressing P-gp; format: functional
# KB-V1 [12] = assay: Induction of oxidative stress-dependent lysosomal membrane permeabilization in human KBV1 cells over expressing P-gp assessed as decrease in cathepsin D and LAMP2 lysosomal colocalization at 25 uM after 24 hrs by TexasRed staining based immunofluorescence microscopic analysis; format: functional, cell-based
# [13] = as §1; format: functional, cell-based; conditions: KB 3-1, 24 h
# [14] = Antiproliferative activity against human KBV1 cells over expressing P-gp after 24 hrs by MTT assay; format: functional, cell-based; conditions: KB-V1, 24 h
# [15] = (§3) Antiproliferative activity against human KBV1 cells over expressing P-gp after 24 hrs in presence of P-gp inhibitor elacridar by MTT assay; format: functional, cell-based; conditions: KB-V1, 24 h
# [16] = as §2; format: functional, cell-based; conditions: KB 3-1, 24 h
# KB-V1 [17] = assay: as §3; format: functional, cell-based
# Homo sapiens [18] = organism: Homo sapiens; assay: Inhibition of P-gp (unknown origin) in P-gp enriched membranes assessed as […] at 100 uM in presence of Mg2-ATP after 40 mins by luciferase reporter gen assay relative to control; format: cell membranes
molecule,measurement,setting,value
CN(C)C(=S)NN=C(c1ccccn1)c1ccccn1,Activity,KBV1 [1],Active
same,Activity,KB 3-1 [2],Active
same,Activity,KB-V1 [3],Active
same,Activity,KB-V1 [4],Active
same,fold change (FC),Homo sapiens [5],6.6
same,Activity,KB 3-1 [6],Active
same,Activity,KBV1 [7],Active
CN(C(=S)NN=C(c1ccccn1)c1ccccn1)C1CCCCC1,Activity,KBV1 [8],Active
same,Activity,KB-V1 [9],Active
same,Activity,KB 3-1 [2],Active
same,Activity,KBV1 [10],Active
same,fold change (FC),Homo sapiens [5],7.4
same,Ratio IC50,[11],8.1
same,Activity,KB 3-1 [6],Active
same,Activity,KB-V1 [12],Active
NC(=S)N/N=C/c1ncccc1N [TRIAPINE],IC50,[13],> 800 µM
same,fold change (FC),Homo sapiens [5],4.6
same,IC50,[14],> 800 µM
same,IC50,[15],> 800 µM
same,IC50,[16],> 800 µM
CN(/N=C(\c1ccccc1)c1ccccn1)C(N)=S,IC50,[13],> 800 µM
same,fold change (FC),Homo sapiens [5],5.2
same,IC50,[14],> 800 µM
same,IC50,[15],> 800 µM
same,IC50,[16],> 800 µM
C/C(=N/NC(=S)N(C)C)c1ccccn1,Activity,KB 3-1 [2],Active
same,fold change (FC),Homo sapiens [5],5.1
same,Ratio IC50,[11],2.1
same,Activity,KB-V1 [17],Active
same,Activity,KB 3-1 [6],Active
SODIUM ORTHOVANAD,fold change (FC),Homo sapiens [18],11.9
CN(C)C(=S)N/N=C(/c1ccccc1)c1ccccn1,Activity,KBV1 [8],Active
same,Activity,KB-V1 [9],Active
same,Activity,KB 3-1 [2],Active
same,Activity,KBV1 [10],Active
same,fold change (FC),Homo sapiens [5],7.9
same,Ratio IC50,[11],13.2
same,Activity,KB 3-1 [6],Active
same,Activity,KB-V1 [12],Active
